{
  "source": "ChEMBL document CHEMBL4354822",
  "about": "“Ligand-Based Design of Nondimethylphenyl-Diarylpyrimidines with Improved Metabolic Stability, Safety, and Oral Pharmacokinetic Profiles” (J Med Chem, 2019)",
  "key": {"[1]": {"tested_on": "Human immunodeficiency virus 1", "test": "Ratio of EC50 for test compound to EC50 for 4-[4-[[2-(4-cyanoanilino)pyrimidin-4-yl]amino]-3,5-dimethyl-phenyl]benzonitrile against HIV1 3B infected in human MT4 cells incubated for 5 days by MTT assay", "type": "functional"}, "[2]": {"test": "Aqueous solubility of compound at 2 mg measured for 24 hrs by HPLC analysis", "type": "physicochemical", "details": "aqueous medium"}, "[3]": {"test": "Metabolic stability in human liver microsomes at 1 uM measured up to 45 mins in presence of NADPH by LC/MS/MS analysis", "type": "ADME, Microsome"}, "[4]": {"test": "Metabolic stability in rat liver microsomes at 1 uM measured up to 45 mins in presence of NADPH by LC/MS/MS analysis", "type": "ADME, Microsome"}, "[5]": {"test": "Intrinsic clearance in human liver microsomes assessed per mg protein at 1 uM measured up to 45 mins in presence of NADPH by LC/MS/MS analysis", "type": "ADME, Microsome", "details": "read-out: CLH"}, "[6]": {"test": "Intrinsic clearance in rat liver microsomes assessed per mg protein at 1 uM measured up to 45 mins in presence of NADPH by LC/MS/MS analysis", "type": "ADME, Microsome", "details": "microsomes, 0.75 h, 1 µM"}, "[7]": {"test": "AUC in Sprague-Dawley rat at 5 mg/kg, po via gavage administration measured after 24 hrs by LCMS analysis", "type": "ADME, organism-based", "parameters": "time < 24 hr, dose 5 mg/kg, route oral", "details": "in vivo"}, "[8]": {"test": "AUCinfinity in Sprague-Dawley rat at 5 mg/kg, po via gavage administration measured after 24 hrs by LCMS analysis", "type": "ADME, organism-based", "parameters": "dose 5 mg/kg, route oral, time infinity", "details": "in vivo"}, "[9]": {"test": "MRTinfinity in Sprague-Dawley rat at 5 mg/kg, po via gavage administration measured after 24 hrs by LCMS analysis", "type": "ADME, organism-based", "details": "in vivo"}, "[10]": {"test": "Half life in Sprague-Dawley rat at 5 mg/kg, po via gavage administration measured after 24 hrs by LCMS analysis", "type": "ADME, organism-based", "details": "in vivo"}, "[11]": {"test": "Tmax in Sprague-Dawley rat at 5 mg/kg, po via gavage administration measured after 24 hrs by LCMS analysis", "type": "ADME, organism-based", "details": "in vivo"}, "[12]": {"test": "Cmax in Sprague-Dawley rat at 5 mg/kg, po via gavage administration measured after 24 hrs by LCMS analysis", "type": "ADME, organism-based", "parameters": "dose 5 mg/kg, route oral", "details": "in vivo"}, "[13]": {"test": "Oral bioavailability in Sprague-Dawley rat at 5 mg/kg measured after 24 hrs by LCMS analysis", "type": "ADME, organism-based", "details": "in vivo"}, "[14]": {"test": "AUC in Sprague-Dawley rat at 10 mg/kg, po via gavage administration measured after 24 hrs by LCMS analysis", "type": "ADME, organism-based", "parameters": "dose 10 mg/kg, time < 24 hr, route oral", "details": "in vivo"}, "[15]": {"test": "AUCinfinity in Sprague-Dawley rat at 10 mg/kg, po via gavage administration measured after 24 hrs by LCMS analysis", "type": "ADME, organism-based", "parameters": "dose 10 mg/kg, time infinity, route oral", "details": "in vivo"}, "[16]": {"test": "MRTinfinity in Sprague-Dawley rat at 10 mg/kg, po via gavage administration measured after 24 hrs by LCMS analysis", "type": "ADME, organism-based", "details": "in vivo"}, "[17]": {"test": "Half life in Sprague-Dawley rat at 10 mg/kg, po via gavage administration measured after 24 hrs by LCMS analysis", "type": "ADME, organism-based", "details": "in vivo"}, "[18]": {"test": "Tmax in Sprague-Dawley rat at 10 mg/kg, po via gavage administration measured after 24 hrs by LCMS analysis", "type": "ADME, organism-based", "details": "in vivo"}, "[19]": {"test": "Cmax in Sprague-Dawley rat at 10 mg/kg, po via gavage administration measured after 24 hrs by LCMS analysis", "type": "ADME, organism-based", "parameters": "dose 10 mg/kg, route oral", "details": "in vivo"}, "[20]": {"test": "Oral bioavailability in Sprague-Dawley rat at 10 mg/kg measured after 24 hrs by LCMS analysis", "type": "ADME, organism-based", "details": "in vivo"}, "[21]": {"test": "AUC in Sprague-Dawley rat at 1 mg/kg, iv measured after 24 hrs by LCMS analysis", "type": "ADME, organism-based", "parameters": "time < 24 hr, dose 1 mg/kg, route intravenous", "details": "in vivo"}, "[22]": {"test": "AUCinfinity in Sprague-Dawley rat at 1 mg/kg, iv measured after 24 hrs by LCMS analysis", "type": "ADME, organism-based", "parameters": "dose 1 mg/kg, route intravenous, time infinity", "details": "in vivo"}, "[23]": {"test": "MRTinfinity in Sprague-Dawley rat at 1 mg/kg, iv measured after 24 hrs by LCMS analysis", "type": "ADME, organism-based", "details": "in vivo"}, "[24]": {"test": "Half life in Sprague-Dawley rat at 1 mg/kg, iv measured after 24 hrs by LCMS analysis", "type": "ADME, organism-based", "details": "in vivo"}, "[25]": {"test": "Acute toxicity in mouse assessed as mortality at 2 mg/kg, ig measured up to 14 days", "type": "organism-based", "details": "in vivo, po, 336 h"}, "[26]": {"test": "Acute toxicity in mouse assessed as change in body weight at 2 mg/kg, ig measured up to 14 days", "type": "organism-based", "details": "in vivo, po, 336 h"}, "[27]": {"test": "Acute toxicity in mouse assessed as change in behavior at 2 mg/kg, ig measured up to 14 days", "type": "organism-based", "details": "in vivo, po, 336 h"}, "[28]": {"test": "Acute toxicity in mouse assessed as change in brain at 2 mg/kg, ig measured up to 14 days by H and E staining based assay", "type": "organism-based", "details": "in vivo, po, 336 h"}, "[29]": {"test": "Acute toxicity in mouse assessed as change in heart at 2 mg/kg, ig measured up to 14 days by H and E staining based assay", "type": "organism-based", "details": "in vivo, po, 336 h"}, "[30]": {"test": "Acute toxicity in mouse assessed as change in liver at 2 mg/kg, ig measured up to 14 days by H and E staining based assay", "type": "organism-based", "details": "in vivo, po, 336 h"}, "[31]": {"test": "Acute toxicity in mouse assessed as change in lung at 2 mg/kg, ig measured up to 14 days by H and E staining based assay", "type": "organism-based", "details": "in vivo, po, 336 h"}, "[32]": {"test": "Acute toxicity in mouse assessed as change in kidney at 2 mg/kg, ig measured up to 14 days by H and E staining based assay", "type": "organism-based", "details": "in vivo, po, 336 h"}},
  "data": [
    {"smiles": "N#Cc1ccc(Nc2nc(Oc3ccc(-c4ccc(C#N)cc4)c(F)c3F)c3sccc3n2)cc1", "values": [
      {"measurement": "Ratio EC50", "setting": "[1]", "value": 14}
    ]},
    {"smiles": "Cl.N#Cc1ccc(Nc2nccc(Nc3c(F)cc(-c4ccc(C#N)cc4)cc3F)n2)cc1", "values": [
      {"measurement": "solubility at 24 h", "setting": "[2]", "value": 5.6, "unit": "µg/mL"},
      {"measurement": "half-life at 1 µM", "setting": "[3]", "value": 0.527, "unit": "h"},
      {"measurement": "k el at 0.75 h, 1 µM", "setting": "[3]", "value": 0.000365, "unit": "s⁻¹"},
      {"measurement": "k el at 0.75 h, 1 µM", "setting": "[4]; liver microsomes", "value": 0.000262, "unit": "s⁻¹"},
      {"measurement": "t1/2", "setting": "[4]; microsomes, 0.75 h, 1 µM", "value": 0.738, "unit": "h"},
      {"measurement": "microsomal CLint at 1 µM", "setting": "[5]", "value": 21.9, "unit": "µL/min/mg"},
      {"measurement": "CLH", "setting": "[6]", "value": 44.3, "unit": "µL/min/mg"},
      {"measurement": "AUC at 24 h", "setting": "[7]", "value": 7.89, "unit": "µg·h/mL"},
      {"measurement": "AUC(0-inf)", "setting": "[8]", "value": 8, "unit": "µg·h/mL"},
      {"measurement": "MRT inf", "setting": "[9]", "value": 8.37, "unit": "h"},
      {"measurement": "half-life", "setting": "[10]", "value": 3.23, "unit": "h"},
      {"measurement": "Tmax", "setting": "[11]", "value": 5.33, "unit": "h"},
      {"measurement": "Cmax", "setting": "[12]", "value": 0.887, "unit": "µg/mL"},
      {"measurement": "bioavailability", "setting": "[13]", "value": 44, "unit": "%"},
      {"measurement": "AUC at 24 h", "setting": "[14]", "value": 12.1, "unit": "µg·h/mL"},
      {"measurement": "AUC(0-inf)", "setting": "[15]", "value": 12.2, "unit": "µg·h/mL"},
      {"measurement": "MRT inf", "setting": "[16]", "value": 8.27, "unit": "h"},
      {"measurement": "half-life", "setting": "[17]", "value": 3.18, "unit": "h"},
      {"measurement": "Tmax", "setting": "[18]", "value": 6.67, "unit": "h"},
      {"measurement": "Cmax", "setting": "[19]", "value": 1.23, "unit": "µg/mL"},
      {"measurement": "bioavailability", "setting": "[20]", "value": 33.6, "unit": "%"},
      {"measurement": "AUC at 24 h", "setting": "[21]", "value": 3.56, "unit": "µg·h/mL"},
      {"measurement": "AUC(0-inf)", "setting": "[22]", "value": 3.64, "unit": "µg·h/mL"},
      {"measurement": "MRT inf", "setting": "[23]", "value": 4.69, "unit": "h"},
      {"measurement": "half-life", "setting": "[24]", "value": 4.18, "unit": "h"},
      {"measurement": "Activity", "setting": "[25]", "value": "Non-Toxic"},
      {"measurement": "Activity", "setting": "[26]", "value": "Non-Toxic"},
      {"measurement": "Activity", "setting": "[27]", "value": "Non-Toxic"},
      {"measurement": "Activity", "setting": "[28]", "value": "Non-Toxic"},
      {"measurement": "Activity", "setting": "[29]", "value": "Non-Toxic"},
      {"measurement": "Activity", "setting": "[30]", "value": "Non-Toxic"},
      {"measurement": "Activity", "setting": "[31]", "value": "Non-Toxic"},
      {"measurement": "Activity", "setting": "[32]", "value": "Non-Toxic"}
    ]}
  ]
}
